Test system: SVR cells
Assay: SVR cell assay: cell numbers counted at 48 hours, percent inhibition versus control
Format: cell-based, murine
Settings: 10,000 SVR cells in 24 well dish, counted at 48 hours; for inhibition at 1 µg/mL / Percent Inhibition at a Specified Density (μg/ml): 1: 1 μg/ml; for inhibition at 1 µg/mL: read-out: Percent Inhibition at a Specified Density (μg/ml): 1; for inhibition at 3 µg/mL / Percent Inhibition at a Specified Density (μg/ml): 3: 3 μg/ml; for inhibition at 3 µg/mL: read-out: Percent Inhibition at a Specified Density (μg/ml): 3; for inhibition at 6 µg/mL / Percent Inhibition at a Specified Density (μg/ml): 6: 6 μg/ml; for inhibition at 6 µg/mL: read-out: Percent Inhibition at a Specified Density (μg/ml): 6
Procedure: In the case of testing the anti-angiogenic/anti-cancer activity of compounds according to the present invention, an assay based on SVR cells may be employed. […] The cell numbers are counted and compared against controls. Percent inhibition is readily determined from the data obtained.
10,000 SVR cells were seeded in a 24 well dish [Arbiser, et al., J. Am. […] The cell numbers were counted at 48 hours.

| Structure (SMILES) | inhibition at 1 µg/mL (Mus musculus) [%] | inhibition at 3 µg/mL (Mus musculus) [%] | inhibition at 6 µg/mL (Mus musculus) [%] | Percent Inhibition at a Specified Density (μg/ml): 1 [%] | Percent Inhibition at a Specified Density (μg/ml): 3 [%] | Percent Inhibition at a Specified Density (μg/ml): 6 [%] | Percent Inhibition at a Specified Density (μg/ml): 9 (9 μg/ml) [%] | inhibition at 9 µg/mL (Mus musculus, 9 μg/ml, read-out: Percent Inhibition at a Specified Density (μg/ml): 9) [%] |
| --- | --- | --- | --- | --- | --- | --- | --- | --- |
| O=C(/C=C/c1ccccc1)c1c(F)c(F)c(F)c(F)c1F [Compound 36, 2′,3′,4′,5′,6′-Pentafluorochalcone] | 6.6 | 55.6 | 88.7 | – | – | – | – | – |
| COc1cccc(OC)c1/C=C/C(=O)c1c(OC)cccc1OC [Compound 37, 2,2′,6,6′-Tetramethoxychalcone] | 36.2 | 49.2 | 39.2 | – | – | – | – | – |
| COc1cccc(OC)c1C(=O)/C=C/c1ccccc1 [Compound 38, 2′,6′-Dimethoxychalcone] | 25.8 | 39.8 | 63.5 | – | – | – | – | – |
| COc1cccc(OC)c1/C=C/C(=O)c1ccccc1 [Compound 39, 2,6-Dimethoxychalcone] | 31.8 | 56.4 | 60.8 | – | – | – | – | – |
| COc1cccc(OC)c1C(=O)/C=C/c1c(Cl)cccc1Cl [Compound 40, 2,6-Dichloro-2′,6′-dimethoxychalcone] | 23.2 | 43.7 | 52.3 | – | – | – | – | – |
| O=C(/C(Br)=C/c1ccccc1)c1ccccc1 [Compound 41, α-Bromo-Z-chalcone] | – | – | – | 57.2 | 75.7 | 79.8 | – | – |
| O=C(C=Cc1ccco1)c1ccco1 [Compound 43, 1,3-Bis(2-furyl)propenone] | – | – | – | 7.7 | 8.1 | 12.0 | – | – |
| O=C(C=Cc1ccccc1)c1ccco1 [Compound 44, 1-(2-Furyl)-3-phenylpropenone] | – | – | – | 28.2 | 57.7 | 90.2 | – | – |
| O=C(C=Cc1ccco1)c1ccccc1 [Compound 45, 3-(2-Furyl)-1-phenylpropenone] | – | – | – | 9.8 | 1.0 | 0.0 | – | – |
| O=C(C=Cc1ccccn1)c1ccccn1 [Compound 46, 1,3-Di(2-pyridyl)propenone] | – | – | – | 0.0 | 53.4 | 85.2 | – | – |
| O=C(C=Cc1ccccn1)c1ccccc1 [Compound 47, 1-Phenyl-3-(2-pyridyl)propenone] | – | – | – | 40.7 | 89.1 | 96.9 | – | – |
| O=C(C=Cc1cccnc1)c1ccccc1 [Compound 48, 1-Phenyl-3-(3-pyridyl)propenone] | – | – | – | 30.0 | 31.7 | 83.2 | – | – |
| O=C(C=Cc1ccccc1)c1ccc[nH]1 [Compound 49, 3-Phenyl-1-(2-pyrrolyl)propenone] | – | – | – | 8.3 | 11.4 | 19.4 | – | – |
| O=C(C=Cc1ccc[nH]1)c1ccccc1 [Compound 50, 1-Phenyl-3-(2-pyrrolyl)propenone] | – | – | – | 19.0 | 21.5 | 0.0 | – | – |
| O=C(C=Cc1ccccc1)c1c2ccccc2cc2ccccc12 [Compound 51, 1-(9-Anthryl)-3-phenylpropenone] | – | – | – | 25.5 | 46.4 | 69.0 | – | – |
| O=C(C=Cc1c2ccccc2cc2ccccc12)c1ccccc1 [Compound 52, 3-(9-Anthryl)-1-phenylpropenone] | – | – | – | 54.6 | 53.5 | 71.3 | – | – |
| O=C(C=Cc1c2ccccc2cc2ccccc12)c1c2ccccc2cc2ccccc12 [Compound 53, 1,3-Di(9-Anthryl)propenone] | – | – | – | 0.0 | 0.0 | 4.7 | – | – |
| O=C(C=Cc1ccc2ccccc2c1)c1c2ccccc2cc2ccccc12 [Compound 54, 1-(9-Anthryl)-3-(2-naphthyl)propenone] | – | – | – | 52.5 | 57.3 | 48.1 | – | – |
| O=C(C=Cc1ccccc1)c1cccc2ccccc12 [Compound 58, 1-(1-Naphthyl)-3-phenylpropenone] | – | – | – | 10.9 | 33.2 | 68.0 | – | – |

| Structure (SMILES) | inhibition at 1 µg/mL (Mus musculus) [%] | inhibition at 3 µg/mL (Mus musculus) [%] | inhibition at 6 µg/mL (Mus musculus) [%] | Percent Inhibition at a Specified Density (μg/ml): 1 [%] | Percent Inhibition at a Specified Density (μg/ml): 3 [%] | Percent Inhibition at a Specified Density (μg/ml): 6 [%] | Percent Inhibition at a Specified Density (μg/ml): 9 (9 μg/ml) [%] | inhibition at 9 µg/mL (Mus musculus, 9 μg/ml, read-out: Percent Inhibition at a Specified Density (μg/ml): 9) [%] |
| --- | --- | --- | --- | --- | --- | --- | --- | --- |
| O=C(C=Cc1c(Cl)cccc1Cl)c1ccc2ccccc2c1 [Compound 59, 3-(2,6-Dichlorophenyl)-1-(2-naphthyl)propenone] | – | – | – | – | 81.0 | 97.4 | 98.3 | – |
| O=C(C=Cc1ccc2ccccc2c1)c1ccc2ccccc2c1 [Compound 60, 1,3-Di(2-naphthyl)propenone] | – | – | – | – | 13.2 | 20.3 | 27.1 | – |
| O=C(C=Cc1ccccc1)c1ccc2ccccc2c1 [Compound 61, 1-(2-Naphthyl)-3-phenylpropenone] | – | – | – | – | 92.2 | 94.7 | 96.0 | – |
| O=C(C=Cc1ccc2ccccc2c1)c1ccccc1 [Compound 62, 3-(2-Naphthyl)-1-phenylpropenone] | – | – | – | – | 29.5 | 44.3 | 69.1 | – |
| O=C(C=Cc1cccc2ccccc12)c1ccc2ccccc2c1 [Compound 63, 1-(2-Naphthyl)-3-(1-naphthyl)propenone] | – | – | – | 0.0 | 24.9 | 50.3 | – | – |
| O=C(C=Cc1ccc2ccccc2c1)c1cccc2ccccc12 [Compound 64, 1-(1-Naphthyl)-3-(2-naphthyl)propenone] | – | – | – | 0.0 | 22.4 | 52.0 | – | – |
| O=C(C=Cc1cccc2ccccc12)c1cccc2ccccc12 [Compound 65, 1,3-Di(1-naphthyl)propenone] | – | – | – | 12.0 | 55.5 | 60.3 | – | – |
| O=C1C(=Cc2ccccc2)COc2ccccc21 [Compound 66, 3-Benzylidene-4-chromanone] | 12.3 | 23.8 | 54.3 | – | – | – | – | – |
| O=C1C(=Cc2c(Cl)cccc2Cl)COc2ccccc21 [Compound 67, 3-(2,6-Dichlorobenzylidene)chromanone] | – | – | – | 5.4 | 3.6 | 12.5 | – | – |
| O=C1C(=Cc2ccccc2)CCc2ccccc21 [Compound 68, 2-(Benzylidene)tetralone] | – | – | – | – | 57.9 | 97.5 | 96.7 | – |
| O=C1C(=Cc2c(Cl)cccc2Cl)CCc2ccccc21 [Compound 69, 2-(2,6-Dichlorobenzylidene)tetralone] | – | – | – | 32.8 | 37.0 | 53.7 | – | – |
| O=C1C(=Cc2cccc3ccccc23)CCc2ccccc21 [Compound 70, 2-(1-Naphthylidene)tetralone] | – | – | – | 18.7 | 15.9 | 23.6 | – | – |
| O=C(/C=C/c1c(F)cccc1Cl)/C=C/c1c(F)cccc1Cl [Compound 72, 1,5-Di(2-chloro-6-fluorophenyl)-1E,4E-pentadien-3-one] | 57 | 70.6 | 86.6 | – | – | – | – | – |
| O=C(/C=C/c1c(Cl)cccc1Cl)/C=C/c1c(Cl)cccc1Cl [Compound 73, 1,5-Bis(2,6-dichlorophenyl)-1E,4E-pentadien-3-one] | 60.7 | 87.1 | 90.4 | – | – | – | – | – |
| O=C(/C=C/c1ccco1)/C=C/c1ccco1 [Compound 74, 1,5-Di(2-furyl)-1E,4E-pentadien-3-one] | 0 | 9.3 | 56.5 | – | – | – | – | – |
| O=C1C(=Cc2ccccc2)CCCC1=Cc1ccccc1 [Compound 75, 2,6-Di(benzylidene)cyclohexanone] | – | 91.3 | 92.8 | – | – | – | – | 97.4 |
| O=C1C(=Cc2c(Cl)cccc2Cl)CCCC1=Cc1c(Cl)cccc1Cl [Compound 76, 2,6-Bis(2,6-dichlorobenzylidene)cyclohexanone] | 8.4 | 29.8 | 27.1 | – | – | – | – | – |
| O=C1C(=C2C=CC=CN2)CCCC1=C1C=CC=CN1 [Compound 79, 2,6-Di(2-pyridylidene)cyclohexanone] | 88.3 | 92.9 | 96.7 | – | – | – | – | – |
